Test results as given in patent US20260234144A1 (TAY THERAPEUTICS LIMITED, priority 2023, published 2026).

Test system: R223X stop codon in the mutated luciferase gene, ADXC8 luciferase reporter cell line
Experiment: cells
Format: cell-based
Details: 24 h, ADXC8 cells, 24 hours; for Emax: read-out: Fold Over Control, maximum fold response relative to 200 μM G418; for EC (100% of 200 uM G418 response): read-out: pC100%, negative logarithm of the concentration giving the same response as 200 μM G418

Cc1cc(C)c2c(N)nc(NC3(C)CNC3)nc2n1 [Example 222]
Emax: 0 to 100% | EC (100% of 200 uM G418 response): > 31.6 µM

COCCN1CC[C@@H](Nc2nc(N)c3c(C)cc(C)nc3n2)C1 [Example 223, (R)—N^2-(1-(2-methoxyethyl)pyrrolidin-3-yl)-5,7-dimethylpyrido[2,3-d]pyrimidine-2,4-diamine]
Emax: 100 to 3000% | EC (100% of 200 uM G418 response): 10 to 100 µM

Cc1cc(C)c2c(N)nc(N[C@@H]3CCN(CCO)C3)nc2n1 [Example 224, (R)-2-(3-((4-amino-5,7-dimethylpyrido[2,3-d]pyrimidin-2-yl)amino)pyrrolidin-1-yl)ethan-1-ol]
Emax: 100 to 3000% | EC (100% of 200 uM G418 response): 10 to 100 µM

Cc1cc(C)c2c(N)nc(N[C@H]3CN(C)C[C@@H]3O)nc2n1 [Example 226, (3S,4S)-4-((4-amino-5,7-dimethylpyrido[2,3-d]pyrimidin-2-yl)amino)-1-methylpyrrolidin-3-ol]
Emax: 100 to 3000% | EC (100% of 200 uM G418 response): 0.1 to 1 µM

CNc1nc(N[C@@H]2CCNC2)nc2nc3c(c(C)c12)CCC3 [Example 231, (R)—N^4,5-dimethyl-N^2-(pyrrolidin-3-yl)-7,8-dihydro-6H-cyclopenta[5,6]pyrido[2,3-d]pyrimidine-2,4-diamine]
Emax: 100 to 3000% | EC (100% of 200 uM G418 response): 0.1 to 1 µM

COC(=O)c1ccc2c(N)nc(NC3CCN(C)CC3)nc2n1 [Example 235, methyl 4-amino-2-((1-methylpiperidin-4-yl)amino)pyrido[2,3-d]pyrimidine-7-carboxylate]
Emax: 0 to 100% | EC (100% of 200 uM G418 response): > 100 µM

CN1CCC(Nc2nc(N)c3ccc(C(=O)O)nc3n2)CC1 [Example 236, 4-amino-2-((1-methylpiperidin-4-yl)amino)pyrido[2,3-d]pyrimidine-7-carboxylic acid]
Emax: 0 to 100% | EC (100% of 200 uM G418 response): > 100 µM

COCc1ccc2c(N)nc(NC3CCN(C)CC3)nc2n1 [Example 237, 7-(methoxymethyl)-N^2-(1-methylpiperidin-4-yl)pyrido[2,3-d]pyrimidine-2,4-diamine]
Emax: 100 to 3000% | EC (100% of 200 uM G418 response): 10 to 100 µM

C=C(C)c1ccc2c(N)nc(NC3CCN(C)CC3)nc2n1 [Example 238, N^2-(1-methylpiperidin-4-yl)-7-(prop-1-en-2-yl) pyrido[2,3-d]pyrimidine-2,4-diamine]
Emax: 0 to 100% | EC (100% of 200 uM G418 response): > 31.6 µM

CC(C)c1ccc2c(N)nc(NC3CCN(C)CC3)nc2n1 [Example 239, 7-isopropyl-N^2-(1-methylpiperidin-4-yl)pyrido[2,3-d]pyrimidine-2,4-diamine]
Emax: 100 to 3000% | EC (100% of 200 uM G418 response): 1 to 10 µM

CC(CO)c1ccc2c(N)nc(NC3CCN(C)CC3)nc2n1 (stereo not drawn) [Example 240, 2-(4-amino-2-((1-methylpiperidin-4-yl)amino)pyrido[2,3-d]pyrimidin-7-yl)propan-1-ol]
Emax: 0 to 100% | EC (100% of 200 uM G418 response): > 100 µM

COc1cnc2nc(NC3CCN(C)CC3)nc(N)c2c1 [Example 241, 6-methoxy-N^2-(1-methylpiperidin-4-yl)pyrido[2,3-d]pyrimidine-2,4-diamine]
Emax: 0 to 100% | EC (100% of 200 uM G418 response): > 31.6 µM

COCc1cnc2nc(NC3CCN(C)CC3)nc(N)c2c1 [Example 242, 6-(methoxymethyl)-N^2-(1-methylpiperidin-4-yl)pyrido[2,3-d]pyrimidine-2,4-diamine]
Emax: 0 to 100% | EC (100% of 200 uM G418 response): > 100 µM

CN1CCC(Nc2nc(N)c3cc(C4CCCC4)cnc3n2)CC1 [Example 243, 6-cyclopentyl-N^2-(1-methylpiperidin-4-yl)pyrido[2,3-d]pyrimidine-2,4-diamine]
Emax: 100 to 3000% | EC (100% of 200 uM G418 response): 10 to 100 µM

CN1CCC(Nc2nc(N)c3c(O)ccnc3n2)CC1 [Example 244, 4-amino-2-((1-methylpiperidin-4-yl)amino)pyrido[2,3-d]pyrimidin-5-ol]
Emax: 0 to 100% | EC (100% of 200 uM G418 response): > 100 µM
